Structures can show the parent of a compound that is named as a salt.
What was measured:
[1] = Determination of the microsomal half-life / microsomal clearance, rat liver microsomes; format: in vitro ADME; settings: 0.5 μM test substance, 0.25 mg of microsomal protein/mL, NADPH, 37° C.
Description: (§1) b) Determination of the Microsomal Half-Life:
(§2) The metabolic stability of the compounds of the invention was determined in the following assay.
(§3) The test substances were incubated in a concentration of 0.5 μM as follows:
(§4) 0.5 μM test substance are preincubated together with liver microsomes from different species (from rat, human or other species) (0.25 mg of microsomal protein/mL) in 0.05 M potassium phosphate buffer of pH 7.4 in microtiter plates at 37° C. for 5 min. The reaction is started by adding NADPH (1 mg/mL). After 0, 5, 10, 15, 20 and 30 min, 50 μl aliquots are removed, and the reaction is immediately stopped and cooled with the same volume of acetonitrile. The samples are frozen until analyzed. The remaining concentration of undegraded test substance is determined by MSMS. The half-life (T½) is determined from the gradient of the signal of test substance/unit time plot, it being possible to calculate the half-life of the test substance, assuming first order kinetics, from the decrease in the concentration of the compound with time. The microsomal clearance (mCl) is calculated from mCl=ln 2/T½/(content of microsomal protein in mg/mL)×1000 [mL/min/mg] (modified from references: Di, The Society for Biomoleculur Screening, 2003, 453-462; Obach, DMD, 1999 vol 27. N 11, 1350-1359).

[2] = Determination of the microsomal half-life / microsomal clearance, human liver microsomes; format: in vitro ADME; settings: 0.5 μM test substance, 0.25 mg of microsomal protein/mL, NADPH, 37° C.
Description: as §1, §2, §3, §4

Row | Molecule | Rat mCl [1] | Human mCl [2] | Rat mCl ([1]; bis(trifluoroacetate))
1 | Cn1nc(-c2ccc(OC(F)(F)F)cc2)c2scc(-c3ccncc3)c2c1=O [Example 101, 5-methyl-3-(pyridin-4-yl)-7-[4-(trifluoromethoxy)phenyl]thieno[2,3-d]pyridazin-4(5H)-one] | ++ (++: <100 μl min^−1 mg^−1) | ++ (++: <100 μl min^−1 mg^−1) | –
2 | Cn1nc(-c2ccncc2)c2scc(-c3ccc(F)cc3)c2c1=O [Example 8, 3-(4-fluorophenyl)-5-methyl-7-(pyridin-4-yl)thieno[2,3-d]pyridazin-4(5H)-one] | + (+: 100-220 μl min^−1 mg^−1) | + (+: 100-220 μl min^−1 mg^−1) | –
3 | Cn1nc(-c2ccncc2)c2scc(-c3ccc(NS(C)(=O)=O)cc3)c2c1=O.O=C(O)C(F)(F)F [Example 33, N-{4-[5-methyl-4-oxo-7-(pyridin-4-yl)-4,5-dihydrothieno[2,3-d]pyridazin-3-yl]phenyl}methanesulfonamide trifluoroacetate] | ∘ (∘ not avialable or >220 μl min^−1 mg^−1) | ++ (++: <100 μl min^−1 mg^−1) | –
4 | CC(C)(C)n1nc(-c2ccncc2)c2scc(-c3ccncc3)c2c1=O [Example 132, 5-tert-butyl-3,7-di(pyridin-4-yl)thieno[2,3-d]pyridazin-4(5H)-one] | ++ (++: <100 μl min^−1 mg^−1) | + (+: 100-220 μl min^−1 mg^−1) | –
5 | COc1ncc(-c2csc3c(-c4ccncc4)nn(C)c(=O)c23)cn1 [Example 10, 3-(2-methoxypyrimidin-5-yl)-5-methyl-7-(pyridin-4-yl)thieno[2,3-d]pyridazin-4(5H)-one] | ++ (++: <100 μl min^−1 mg^−1) | ++ (++: <100 μl min^−1 mg^−1) | –
6 | Cn1nc(-c2ccncc2)c2scc(N3CCC(O)CC3)c2c1=O [Example 4, 3-(4-hydroxypiperidin-1-yl)-5-methyl-7-(pyridin-4-yl)thieno[2,3-d]pyridazin-4(5H)-one] | ++ (++: <100 μl min^−1 mg^−1) | ++ (++: <100 μl min^−1 mg^−1) | –
7 | Cn1nc(-c2ccncc2)c2scc(-c3ccc(F)nc3)c2c1=O.O=C(O)C(F)(F)F.O=C(O)C(F)(F)F [Example 27, 3-(6-fluoropyridin-3-yl)-5-methyl-7-(pyridin-4-yl)thieno[2,3-d]pyridazin-4(5H)-one bis(trifluoroacetate)] | ++ (++: <100 μl min^−1 mg^−1) | ++ (++: <100 μl min^−1 mg^−1) | –
8 | Cn1nc(-c2ccncc2)c2scc(-c3cccnc3)c2c1=O.O=C(O)C(F)(F)F [Example 15, 5-methyl-3-(pyridin-3-yl)-7-(pyridin-4-yl)thieno[2,3-d]pyridazin-4(5H)-one bis(trifluoroacetate)] | – | ++ (++: <100 μl min^−1 mg^−1) | ∘ (∘ not avialable or >220 μl min^−1 mg^−1)
9 | Cn1nc(-c2ccncc2)c2scc(-c3ccnnc3)c2c1=O [Example 7, 5-methyl-3-(pyridazin-4-yl)-7-(pyridin-4-yl)thieno[2,3-d]pyridazin-4(5H)-one] | + (+: 100-220 μl min^−1 mg^−1) | ++ (++: <100 μl min^−1 mg^−1) | –
10 | O=c1c2c(-c3ccncc3)csc2c(-c2ccncc2)nn1C1CCCC1 [Example 134, 5-cyclopentyl-3,7-di(pyridin-4-yl)thieno[2,3-d]pyridazin-4(5H)-one] | + (+: 100-220 μl min^−1 mg^−1) | ∘ (∘ not avialable or >220 μl min^−1 mg^−1) | –
11 | CN1CCN(Cc2ccc(-c3csc4c(-c5ccncc5)nn(C)c(=O)c34)cc2)CC1.O=C(O)C(F)(F)F.O=C(O)C(F)(F)F.O=C(O)C(F)(F)F [Example 43, 5-methyl-3-{4-[(4-methylpiperazin-1-yl)methyl]phenyl}-7-(pyridin-4-yl)thieno[2,3-d]pyridazin-4(5H)-one tris(trifluoroacetate)] | ++ (++: <100 μl min^−1 mg^−1) | ++ (++: <100 μl min^−1 mg^−1) | –
12 | CN1CCN(Cc2cccc(-c3csc4c(-c5ccncc5)nn(C)c(=O)c34)c2)CC1.O=C(O)C(F)(F)F.O=C(O)C(F)(F)F.O=C(O)C(F)(F)F [Example 42, 5-methyl-3-{3-[(4-methylpiperazin-1-yl)methyl]phenyl}-7-(pyridin-4-yl)thieno[2,3-d]pyridazin-4(5H)-one tris(trifluoroacetate)] | ++ (++: <100 μl min^−1 mg^−1) | + (+: 100-220 μl min^−1 mg^−1) | –
13 | Cn1nc(-c2ccccc2C(N)=O)c2scc(-c3ccncc3)c2c1=O [Example 98, 2-[5-methyl-4-oxo-3-(pyridin-4-yl)-4,5-dihydrothieno[2,3-d]pyridazin-7-yl]benzamide] | ++ (++: <100 μl min^−1 mg^−1) | ++ (++: <100 μl min^−1 mg^−1) | –
14 | Cn1nc(OC2CCCCC2)c2scc(-c3ccncc3)c2c1=O.O=C(O)C(F)(F)F [Example 53, 7-(cyclohexyloxy)-5-methyl-3-(pyridin-4-yl)thieno[2,3-d]pyridazin-4(5H)-one trifluoroacetate] | + (+: 100-220 μl min^−1 mg^−1) | ++ (++: <100 μl min^−1 mg^−1) | –
15 | Cn1nc(OCc2ccc(Cl)c(Cl)c2)c2scc(-c3ccncc3)c2c1=O [Example 77, 7-[(3,4-dichlorobenzyl)oxy]-5-methyl-3-(pyridin-4-yl)thieno[2,3-d]pyridazin-4(5H)-one] | ++ (++: <100 μl min^−1 mg^−1) | + (+: 100-220 μl min^−1 mg^−1) | –
16 | Cn1nc(-c2ccncc2)c2scc(-c3cccc(C(=O)N4CCOCC4)c3)c2c1=O [Example 32, 5-methyl-3-[3-(morpholin-4-ylcarbonyl)phenyl]-7-(pyridin-4-yl)thieno[2,3-d]pyridazin-4(5H)-one trifluoroacetate] | ++ (++: <100 μl min^−1 mg^−1) | ++ (++: <100 μl min^−1 mg^−1) | –
17 | CC(C)c1cccc(COc2nn(C)c(=O)c3c(-c4ccncc4)csc23)c1.O=C(O)C(F)(F)F [Example 65, 5-methyl-7-{[3-(propan-2-yl)benzyl]oxy}-3-(pyridin-4-yl)thieno[2,3-d]pyridazin-4(5H)-one trifluoroacetate] | + (+: 100-220 μl min^−1 mg^−1) | ∘ (∘ not avialable or >220 μl min^−1 mg^−1) | –
18 | Cn1nc(N2CCCCC2)c2scc(-c3ccncc3)c2c1=O [Example 47, 5-methyl-7-(piperidin-1-yl)-3-(pyridin-4-yl)thieno[2,3-d]pyridazin-4(5H)-one] | + (+: 100-220 μl min^−1 mg^−1) | + (+: 100-220 μl min^−1 mg^−1) | –
19 | Cn1nc(-c2ccncc2)c2scc(-c3cccc(-n4cccn4)c3)c2c1=O.O=C(O)C(F)(F)F.O=C(O)C(F)(F)F [Example 24, 5-methyl-3-[3-(1H-pyrazol-1-yl)phenyl]-7-(pyridin-4-yl)thieno[2,3-d]pyridazin-4(5H)-one bis(trifluoroacetate)] | + (+: 100-220 μl min^−1 mg^−1) | ∘ (∘ not avialable or >220 μl min^−1 mg^−1) | –
20 | Cn1nc(-c2ccncc2)c2scc(-c3cccc(F)c3)c2c1=O.O=C(O)C(F)(F)F [Example 31, 3-(3-fluorophenyl)-5-methyl-7-(pyridin-4-yl)thieno[2,3-d]pyridazin-4(5H)-one trifluoroacetate] | ++ (++: <100 μl min^−1 mg^−1) | + (+: 100-220 μl min^−1 mg^−1) | –
21 | N#Cc1cccc(-c2csc3c(-c4ccncc4)nn(CC(F)(F)F)c(=O)c23)c1 [Example 129, 3-[4-oxo-7-(pyridin-4-yl)-5-(2,2,2-trifluoroethyl)-4,5-dihydrothieno[2,3-d]pyridazin-3-yl]benzonitrile] | ++ (++: <100 μl min^−1 mg^−1) | ++ (++: <100 μl min^−1 mg^−1) | –
22 | COc1cccc(-c2csc3c(-c4ccncc4)nn(C)c(=O)c23)c1.O=C(O)C(F)(F)F [Example 30, 3-(3-methoxyphenyl)-5-methyl-7-(pyridin-4-yl)thieno[2,3-d]pyridazin-4(5H)-one trifluoroacetate] | + (+: 100-220 μl min^−1 mg^−1) | + (+: 100-220 μl min^−1 mg^−1) | –
23 | O=c1c2c(-c3ccncc3)csc2c(-c2ccncc2)nn1CC1CCCO1 (stereo not shown) [Example 141, 3,7-di(pyridin-4-yl)-5-(tetrahydrofuran-2-ylmethyl)thieno[2,3-d]pyridazin-4(5H)-one] | ++ (++: <100 μl min^−1 mg^−1) | + (+: 100-220 μl min^−1 mg^−1) | –
24 | Cn1nc(-c2ccncc2)c2scc(-c3csc4ccccc34)c2c1=O.O=C(O)C(F)(F)F [Example 26, 3-(1-benzothiophen-3-yl)-5-methyl-7-(pyridin-4-yl)thieno[2,3-d]pyridazin-4(5H)-one trifluoroacetate] | ∘ (∘ not avialable or >220 μl min^−1 mg^−1) | + (+: 100-220 μl min^−1 mg^−1) | –
25 | Cn1nc(-c2ccncc2)c2scc(-c3ccc4c(c3)CCO4)c2c1=O.O=C(O)C(F)(F)F [Example 35, 3-(2,3-dihydro-1-benzofuran-5-yl)-5-methyl-7-(pyridin-4-yl)thieno[2,3-d]pyridazin-4(5H)-one trifluoroacetate] | + (+: 100-220 μl min^−1 mg^−1) | + (+: 100-220 μl min^−1 mg^−1) | –
26 | 3-(4-fluorophenyl)-5-methyl-7-(pyridin-4-yl)thieno[2,3-d]pyridazin-4(5H)-one [Example 48] | ++ (++: <100 μl min^−1 mg^−1) | ++ (++: <100 μl min^−1 mg^−1) | –

Source: patent US9200005B2, “Inhibitor compounds of phosphodiesterase type 10A” (AbbVie Deutschland GmbH & Co. KG, priority 2013, dated 2015)
